The results in this text go back to article PMC9666886, “Molecular characteristics of glutathione transferase gene family in a neglect medical Spirometra tapeworm” (Frontiers in Veterinary Science, 2022).

For data set [1], the target named is T1, rSmGST (Spirometra mansoni, UniProt I1SZ68). The data set can be described thus: biochemical. The following applies: for Ki / IC50: 4 mM GSH; for Ki: CDNB varied 0.20 to 2.0 mM, secondary plot of 1/v intercept vs inhibitor concentration; for inhibition pattern: CDNB as the variable substrate, double-reciprocal plots; for maximal slope at IC50 of fractional velocity vs log inhibitor concentration: Supplementary Figure S4; for IC50: concentration giving 50% inhibition, percent residual activity vs log inhibitor concentration, 1 mM CDNB, pH 6.5. The format is biochemical. On the procedure:
(§1) The effect of temperature on rSmGST was carried out by keeping the enzyme at different temperatures (15, 20, 25, 30, 35, 40, 45, 50, and 55°C) for 10 min, and then enzyme activity was assayed immediately. The effect of pH on rSmGST was carried out using the phosphate buffer having different pH from 5.5 to 10. Activity of enzyme was determined in 100 mM potassium phosphate buffer (pH 6.5) with 1 mM l-chloro-2,4-dinitrobenzene (CDNB) and 4 mM GSH as substrates by following the change in absorbance at 340 nm (ε 1/4 9.6 mM^−1. cm^−1) for 1 min at 30°C as previously described ([28]). In the kinetic mechanism analysis of rSmGST, double reciprocal Lineweaver-Burk plot was used to graphically determine the apparent Km and Vmax values. Inhibition studies were performed according to the procedure of Tahir et al. ([29]). Different range of concentrations of Rose Bengal (RB, 0.1–1000 μM), Cibacron Blue (CB, 0.1–1000 μM), Bromosulfophtalein (BSP, 0.1–500 μM), and Tripheniltin chloride (TPT, 0.1–100 μM) were used as inhibitors respectively. The concentration of inhibitor giving 50% inhibition (IC50) was obtained by plotting the percent of residual activity vs the log of inhibitor concentration. The Ki values for each rSmGST inhibitor were determined according to methods described in Nava et al. ([30]). To ascertain which type of reversible enzyme inhibition occurs, initial-velocity enzyme reactions in the presence of the inhibitors were performed. The rSmGST was preincubated for a few seconds in the assay buffer with 4 mM GSH and inhibitor at the corresponding concentration (CB, 10, 30 μM; TPT, 4, 8 μM; BSP, 20, 60 μM and RB, 20, 60 μM). The reaction was initiated by addition of one of a range of 0.20 to 2.0 mM of different concentrations of CDNB. A set of reactions under identical conditions was performed for each inhibitor concentration and for the non-inhibitor control.

For data set [2], the target named is T1, rSmGST. As to the kind of experiment: Enzyme kinetics of rSmGST with the substrates GSH and CDNB (Lineweaver-Burk plot). The format is biochemical. The following applies: for saturation point (substrate concentration): no further increase in enzyme activity above this concentration. On the procedure:
as §1

Substrate in data set [3]: N[C@@H](CCC(=O)N[C@@H](CS)C(=O)NCC(=O)O)C(=O)O
The description is as above. Format: biochemical, Spirometra mansoni. The settings on record: other: Lineweaver-Burk plot; GSH 0.5–5.0 mM or CDNB 0.2–2.0 mM as varied substrate; pH 6.5. On the procedure:
as §1, with “To ascertain which type of reversible enzyme inhibition occurs, initial-velocity enzyme reactions in the presence of the inhibitors were performed. The rSmGST was preincubated for a few seconds in the assay buffer with 4 mM GSH and inhibitor at the corresponding concentration (CB, 10, 30 μM; TPT, 4, 8 μM; BSP, 20, 60 μM and RB, 20, 60 μM). The reaction was initiated by addition of one of a range of 0.20 to 2.0 mM of different concentrations of CDNB. A set of reactions under identical conditions was performed for each inhibitor concentration and for the non-inhibitor control.” left out

Setting [4] is: Lineweaver-Burk plot, GSH 0.5–5.0 mM or CDNB 0.2–2.0 mM as varied substrate.

As to `O=C1OC(c2ccc(O)c(S(=O)(=O)O)c2)(c2ccc(O)c(S(=O)(=O)O)c2)c2c(Br)c(Br)c(Br)c(Br)c21` [Bromosulfophtalein], at rSmGST [1], the Ki amounted to 122 µM, the inhibition pattern result is recorded as “non-competitive”, the “maximal slope at IC50 of fractional velocity vs log inhibitor concentration” value was −0.27 and it took 290 µM to reach half-maximal inhibition (IC50).
`O=[N+]([O-])c1ccc(Cl)c([N+](=O)[O-])c1` [CDNB, 1-chloro-2,4-dinitrobenzene]: on rSmGST [2], the “specific activity of rSmGST toward substrate” value stood at 3.12 µmol/min/mg and the “saturation point (substrate concentration)” value worked out at 1.6 mM. Further, at rSmGST [2] (setting [4]), the Km worked out at 6.29 mM and the maximum rate (Vmax) was determined as 10.120 µmol/min/mL.
On to `Nc1c(S(=O)(=O)O)cc(Nc2ccc(Nc3nc(Cl)nc(Nc4ccccc4S(=O)(=O)O)n3)c(S(=O)(=O)O)c2)c2c1C(=O)c1ccccc1C2=O` [Cibacron Blue], for which, on rSmGST [1], the affinity, expressed as Ki, was 20.1 µM; the inhibition pattern entry is “uncompetitive”; the “maximal slope at IC50 of fractional velocity vs log inhibitor concentration” value was −0.51; the IC50 came out at 11.7 µM.
Turning to `N[C@@H](CCC(=O)N[C@@H](CS)C(=O)NCC(=O)O)C(=O)O` [GSH, glutathione], the “saturation point (substrate concentration)” value on rSmGST [2] is 4.0 mM.
For the molecule `O=C([O-])c1c(Cl)c(Cl)c(Cl)c(Cl)c1-c1c2cc(I)c(=O)c(I)c-2oc2c(I)c([O-])c(I)cc12.[Na+].[Na+]` [Rose Bengal], at rSmGST [1], the affinity, expressed as Ki, was 57.6 µM; the inhibition pattern entry is given as “uncompetitive”; the “maximal slope at IC50 of fractional velocity vs log inhibitor concentration” value was −0.63; the IC50 was 34 µM.
Turning to `[Cl][Sn]([c]1ccccc1)([c]1ccccc1)[c]1ccccc1` [Tripheniltin chloride], at rSmGST [1], the affinity, expressed as Ki, was 11.7 µM; the inhibition pattern result was “non-competitive”; the “maximal slope at IC50 of fractional velocity vs log inhibitor concentration” value is listed as −0.59; the IC50 came to 12.1 µM.

B1: rSmGST (Spirometra erinaceieuropaei) (protein)
chain: MGSLPVLEYWKIRGLAQAIRLLFHYLGQEYVEELYEAGGPPDFSREPWLKHKFNKGLDFPNLPYLIDDGFKITQSGAILEYVADKHGMLPTSAKERAVLHMLQNELSGFRASYGRLVYNPDFSKLKQGFLDELPQKLRLWSNYLGDKQWLTGDKIQYPDFNLYDFLDALQNLEPSCLKDFPNLQRYMKRFEDLDKIKEFQKSDAYIAHPFNNTVAAWRGDA
In the case of B1, in data set [3], the Km worked out at 0.78 mM and the Vmax is 1.146 µmol/min/mL.
